Test results from US20260048051A1, “TREATMENT OF INFLAMMATORY BOWEL DISEASE” (Atomwise Inc., priority 2024, published 2026).
Read-outs that look alike come from different tables or passages of the source.

Assay: Plasma and tissue distribution in SD rats
Format: in vivo
Conditions: for Tissue/Plasma Ratio (AUCinf) / Kp: SD rat; for Kp / AUC(0-t): rat; for Kp: oral, read-out: Tissue/Plasma Ratio (AUCinf); for AUC(0-t): read-out: AUClast; for AUC0-inf: read-out: AUCINF_obs
From the text: The following Example describes the methods and data used to evaluate the tissue distribution of TYK2 inhibitors following the administration of either compound 1 or compound 2.
Thirty (30, 15/sex) SD rats supplied by Beijing Vital River Laboratory Animal Technology Co., Ltd. were used in this study. The animals were confirmed to be healthy before being assigned to the study. The room (s) was controlled and monitored for relative humidity (targeted mean range 40% to 70%) and temperature (targeted mean range 20° C. to 26° C.) with 15 or above air changes/hour. The room was on a 12-hour light/dark cycle except when interruptions were necessitated by study activities. Fresh drinking water (reverses osmosis) was available to all animals, ad libitum. Certified animal diet from certified vendor was available to all animals, ad libitum.
Animals were weighed prior to dose administration to calculate the actual dose volume. The body weights were in the range from 245.39 to 276.33 g for males and 182.29 to 215.69 g for females on the first dosing day. The animals in Groups 1 and 2 received a single oral gavage administration of test compound 1. Cage-side observations for the general health condition and appearance of the animal were performed before and after dosing and at each time point of sample collection. Unusual observations were recorded throughout the duration of the study.
The vehicle was 0.5% methyl cellulose (4000 cps) in water. The formulation was prepared according to the following steps. Group 1: 25.95 mg of compound 1 was weighed into a glass vial. 5000 μL of vehicle was added into the vial and stirred for 30 min at 1700 rpm to get a homogenous opaque suspension. 5000 μL of vehicle was added into the vial and stirred for 10 min at 1700 rpm to get a homogenous opaque suspension. 5000 μL+5000 μL+5000 μL+924 μL of vehicle was added into the vial and stirred for 10 min at 1700 rpm to get a homogenous opaque suspension. Group 2: 81.66 mg of compound 1 was weighed into a glass vial. 5000 μL of vehicle was added into the vial and stirred for 30 min at 1700 rpm to get a homogenous opaque suspension. 5000 μL of vehicle was added into the vial and stirred for 10 min at 1700 rpm to get a homogenous opaque suspension. 10 mL+10 mL+10 mL+20 mL+10 mL+10 mL+1580 μL of vehicle was added into the vial and stirred for 10 min at 1700 rpm to get a homogenous opaque suspension.
Blood (about 0.2 mL) was collected at each time point via jugular vein puncture from each study animal. The actual time for each sample collection was recorded. The acceptable deviations on sampling time were ±1 min for the time points pre-dose through 1 hour post-dose, and +5% of the nominal time for time points after 1 hour post-dose.
All blood samples were transferred into commercial tubes containing K2-EDTA. After blood was collected, the samples were placed on wet ice and processed for plasma within 60 minutes of collection by centrifugation at approximately 4° C., 3200×g for 10 minutes, and then quickly frozen over dry ice and kept at −60° C. or lower until LC-MS/MS analysis.
Following terminal blood sample collection, animals were conducted CO2 euthanasia, the chest and abdominal cavities were opened carefully lengthwise using scissors to expose the internal organs in preparation of tissue perfusion. A needle was used to puncture a small hole into the left ventricle of the heart, and then clamped with a hemostat. […] Fluid (cold 1×PBS) was infused until the liver pales (typically 2-3 minutes). Following perfusion, 14 kinds of tissues (spleen, bone marrow, adipose, brain, heart, kidney, liver, lung, skin, small intestine, large intestine, eye, gonads, and bladder) were collected from each animal, respectively.
Each tissue was weighed and homogenized on wet ice using homogenizing buffer (MeOH/15 mM PBS 1:2) at the ratio of 1:9 (1 g tissue with 9 mL buffer). The tissue homogenate was kept at −60° C. or lower until LC-MS/MS analysis. […]

[1] = female, Sprague-Dawley (SD), large intestine, F SD rat, L. Intestine
[2] = female, Sprague-Dawley (SD), F SD rat, Bone Marrow
[3] = female, Sprague-Dawley (SD), F SD rat, Brain
[4] = female, Sprague-Dawley (SD), F SD rat, Eye
[5] = female, Sprague-Dawley (SD), F SD rat, Heart
[6] = female, Sprague-Dawley (SD), F SD rat, Kidney
[7] = female, Sprague-Dawley, F SD rat, Adipose
[8] = female, Sprague-Dawley, F SD rat, Bladder
[9] = female, Sprague-Dawley, F SD rat, Spleen
[10] = female, small intestine, F SD rat, S. Intestine
[11] = male, Sprague-Dawley (SD), large intestine, M SD rat, L. Intestine
[12] = male, Sprague-Dawley (SD), M SD rat, Brain
[13] = male, Sprague-Dawley (SD), M SD rat, Eye
[14] = male, Sprague-Dawley (SD), M SD rat, Heart
[15] = male, Sprague-Dawley (SD), M SD rat, Kidney
[16] = male, Sprague-Dawley, M SD rat, Adipose
[17] = male, Sprague-Dawley, M SD rat, Bladder
[18] = male, Sprague-Dawley, M SD rat, Skin
[19] = male, Sprague-Dawley, M SD rat, Spleen
[20] = male, Sprague-Dawley, M SD rat, Testis
[21] = male, small intestine, M SD rat, S. Intestine

C[C@@H](c1ccc(Nc2cc(Nc3ncc(F)cc3S(C)(=O)=O)ncn2)nc1)N1CC2(COC2)C1 [Compound 2, (S)—N^4-(5-(1-(2-oxa-6-azaspiro[3.3]heptan-6-yl)ethyl)pyridin-2-yl)-N^6-(5-fluoro-3-(methylsulfonyl)pyridin-2-yl)pyrimidine-4,6-diamine]
HL_Lambda_z (F SD rat, Adipose): 2.78 h | HL_Lambda_z (F SD rat, Bladder): 2.37 h | HL_Lambda_z (F SD rat, Bone Marrow): 2.26 h | HL_Lambda_z (F SD rat, Eye): 6.23 h | HL_Lambda_z (F SD rat, Kidney): 2.34 h | HL_Lambda_z (F SD rat, L. Intestine): 4.97 h | HL_Lambda_z (F SD rat, Liver): 2.31 h | HL_Lambda_z (F SD rat, Lung): 2.26 h | HL_Lambda_z (F SD rat, Plasma): 3.20 h | HL_Lambda_z (F SD rat, S. Intestine): 2.06 h | HL_Lambda_z (F SD rat, Skin): 5.71 h | HL_Lambda_z (F SD rat, Spleen): 2.29 h | HL_Lambda_z (M SD rat, Bladder): 2.13 h | HL_Lambda_z (M SD rat, Kidney): 3.28 h | HL_Lambda_z (M SD rat, Plasma): 2.21 h | HL_Lambda_z (M SD rat, S. Intestine): 2.05 h | HL_Lambda_z (M SD rat, Skin): 2.43 h | HL_Lambda_z (M SD rat, Spleen): 2.24 h | Tissue/Plasma Ratio (AUCinf) (Kidney): 13 | Tissue/Plasma Ratio (AUCinf) (Large Intestine): 23 | Kp (Sprague-Dawley (SD), bone marrow / plasma, Bone Marrow): 9.6 | Kp (Sprague-Dawley, adipose, Adipose): 4.5 | Kp (Sprague-Dawley, bladder, Bladder): 8.7 | Kp (Sprague-Dawley, eye, Eye): 1.2 | Kp (Sprague-Dawley, kidney, Kidney): ~13 | Kp (Sprague-Dawley, large intestine, Large Intestine): ~23 | Kp (Sprague-Dawley, liver, Liver): 8.7 | Kp (Sprague-Dawley, lung, Lung): 7.1 | Kp (Sprague-Dawley, skin, Skin): 2.5 | Kp (Sprague-Dawley, small intestine, Small Intestine): 27 | Kp (Sprague-Dawley, spleen, Spleen): 12 | AUC(0-t) (female, SD, bone marrow, F SD rat, Bone Marrow): 38700 ng·h/mL | AUC(0-t) (female, SD, lung, F SD rat, Lung): 29400 ng·h/mL | AUC(0-t) (female, SD, ovaries, F SD rat, Ovaries): 4360 ng·h/mL | AUC(0-t) (female, SD, plasma, F SD rat, Plasma): 4120 ng·h/mL | AUC(0-t) (female, SD, skin, F SD rat, Skin): 8430 ng·h/mL | AUC(0-t) (female, SD, small intestine, F SD rat, S. Intestine): 110000 ng·h/mL | Tmax [1]: 120 min | AUC(0-t) (female, Sprague-Dawley (SD), eye, F SD rat, Eye): 4880 ng·h/mL | AUC(0-t) (female, Sprague-Dawley (SD), heart, F SD rat, Heart): 8990 ng·h/mL | AUC(0-t) (female, Sprague-Dawley (SD), kidney, F SD rat, Kidney): 51800 ng·h/mL | AUC(0-t) [1]: 95000 ng·h/mL | Cmax [2]: 3080 ng/mL | Tmax [2]: 30 min | AUC0-inf [2]: 38300 ng·h/mL | Cmax [3]: 104 ng/mL | Tmax [3]: 30 min | Cmax [4]: 700 ng/mL | Tmax [4]: 30 min | AUC0-inf [4]: 4910 ng·h/mL | Cmax [5]: 2500 ng/mL | Tmax [5]: 30 min | Cmax [6]: 9870 ng/mL | Tmax [6]: 30 min | AUC0-inf [6]: 51800 ng·h/mL | AUC(0-t) (female, Sprague-Dawley, adipose, F SD rat, Adipose): 18700 ng·h/mL | AUC(0-t) (female, Sprague-Dawley, bladder, F SD rat, Bladder): 18600 ng·h/mL | AUC(0-t) (female, Sprague-Dawley, spleen, F SD rat, Spleen): 43400 ng·h/mL | Cmax [7]: 4310 ng/mL | Tmax [7]: 30 min | Cmax [8]: 2650 ng/mL | Tmax [8]: 30 min | AUC0-inf [8]: 18600 ng·h/mL | Cmax [9]: 12500 ng/mL | Tmax [9]: 30 min | Cmax [10]: 24800 ng/mL | Tmax [10]: 30 min | AUC0-inf [10]: 130000 ng·h/mL | Tmax (female, F SD rat, Liver): 30 min | AUC0-inf (female, F SD rat, Liver): 35900 ng·h/mL | Cmax (female, F SD rat, Lung): 3070 ng/mL | Tmax (female, F SD rat, Lung): 30 min | AUC0-inf (female, F SD rat, Lung): 29500 ng·h/mL | Cmax (female, F SD rat, Ovaries): 1940 ng/mL | Tmax (female, F SD rat, Ovaries): 30 min | Cmax (female, F SD rat, Plasma): 625 ng/mL | Tmax (female, F SD rat, Plasma): 480 min | AUC0-inf (female, F SD rat, Plasma): 4140 ng·h/mL | Cmax (female, F SD rat, Skin): 1180 ng/mL | Tmax (female, F SD rat, Skin): 30 min | AUC0-inf (female, F SD rat, Skin): 8450 ng·h/mL | AUC(0-t) (male, SD, liver, M SD rat, Liver): 14700 ng·h/mL | AUC(0-t) (male, SD, lung, M SD rat, Lung): 18200 ng·h/mL | AUC(0-t) (male, SD, skin, M SD rat, Skin): 7820 ng·h/mL | Cmax [11]: 7320 ng/mL | Tmax [11]: 480 min | AUC(0-t) (male, Sprague-Dawley (SD), bone marrow, M SD rat, Bone Marrow): 19600 ng·h/mL | AUC(0-t) (male, Sprague-Dawley (SD), brain, M SD rat, Brain): 273 ng·h/mL | AUC(0-t) (male, Sprague-Dawley (SD), heart, M SD rat, Heart): 2880 ng·h/mL | AUC(0-t) (male, Sprague-Dawley (SD), kidney, M SD rat, Kidney): 32600 ng·h/mL | Tmax (male, Sprague-Dawley (SD), M SD rat, Bone Marrow): 30 min | Cmax [12]: 68.9 ng/mL | Tmax [12]: 30 min | Cmax [13]: 535 ng/mL | Tmax [13]: 156 min | Cmax [14]: 2520 ng/mL | Tmax [14]: 30 min | Cmax [15]: 9620 ng/mL | Tmax [15]: 30 min | AUC0-inf [15]: 32600 ng·h/mL | Cmax (male, Sprague-Dawley (SD), M SD rat, Liver): 6340 ng/mL | AUC(0-t) (male, Sprague-Dawley, adipose, M SD rat, Adipose): 12200 ng·h/mL | AUC(0-t) (male, Sprague-Dawley, bladder, M SD rat, Bladder): 36200 ng·h/mL | AUC(0-t) (male, Sprague-Dawley, spleen, M SD rat, Spleen): 25700 ng·h/mL | AUC(0-t) (male, Sprague-Dawley, testis, M SD rat, Testis): 5090 ng·h/mL | Cmax [16]: 3900 ng/mL | Tmax [16]: 30 min | Cmax [17]: 6820 ng/mL | Tmax [17]: 33.6 min | AUC0-inf [17]: 36300 ng·h/mL | Tmax [18]: 30 min | AUC0-inf [18]: 8020 ng·h/mL | Cmax [19]: 6860 ng/mL | Tmax [19]: 30 min | Cmax [20]: 318 ng/mL | Tmax [20]: 480 min | Cmax [21]: 28900 ng/mL | Tmax [21]: 30 min | Cmax (male, M SD rat, Bone Marrow): 4530 ng/mL | Tmax (male, M SD rat, Liver): 30 min | Cmax (male, M SD rat, Lung): 4410 ng/mL | Tmax (male, M SD rat, Lung): 30 min | Cmax (male, M SD rat, Plasma): 509 ng/mL | Tmax (male, M SD rat, Plasma): 180 min | AUC0-inf (male, M SD rat, Plasma): 2680 ng·h/mL | Cmax (male, M SD rat, Skin): 1460 ng/mL
